According to US9315500B2, “Bicyclic heteroaryl cycloalkyldiamine derivatives” (NOVARTIS AG, priority 2012, dated 2016):

Target: SYK (SYK(2-635)) (Homo sapiens (Human), UniProt P43405)
Assay: SYK enzyme assay (chip based microfluidic mobility shift assay)
Assay type: biochemical
Details: SYK kinase, 4 μM ATP/peptide solution, 30° C., 60 minutes, Caliper mobility shift
Method: A number of compounds of the present invention were assayed in a chip based microfluidic mobility shift assay. All assays were performed in 384 well microtiter plates. Each assay plate contained 8-point serial dilutions for 40 test compounds, as well as four 8-point serial dilutions of staurosporine as reference compound, plus 16 high- and 16 low controls. Liquid handling and incubation steps were done on a Thermo CatX workstation equipped with a Innovadyne Nanodrop Express. Between pipetting steps, tips were cleaned in wash cycles using wash buffer. The assay plates were prepared by addition of 50 nl per well of compound solution in 90% DMSO. The kinase reactions were started by stepwise addition of 4.5 μl per well of peptide/ATP-solution (50 mM HEPES, pH 7.5, 1 mM DTT, 0.02% Tween20, 0.02% BSA, 0.6% DMSO, 10 mM beta-glycerophosphate, and 10 μM sodium orthovanadate, 1 mM MgCl2, 3 mM MnCl2, 4 μM ATP, 4 μM peptide (5-Fluo-Ahx-GAPDYENLQELNKK-Amid) and 4.5 μl per well of enzyme solution (50 mM HEPES, pH 7.5, 1 mM DTT, 0.02% Tween20, 0.02% BSA, 0.6% DMSO, 10 mM beta-glycerophosphate, and 10 μM sodium orthovanadate, 1 mM MgCl2, 3 mM MnCl2, 4 nM SYK (SYK(2-635), produced in-house from insect cells). Kinase reactions were incubated at 30° C. for 60 minutes and subsequently terminated by addition of 16 μl per well of stop solution (100 mM HEPES pH 7.5, 5% DMSO, 0.1% Caliper coating reagent, 10 mM EDTA, and 0.015% Brij35). Plates with terminated kinase reactions were transferred to the Caliper LC3000 workstations for reading. Phosphorylated and unphosphorylated peptides were separated using the Caliper microfluidic mobility shift technology. Briefly, samples from terminated kinase reactions were applied to the chip. Analytes are transported through the chip by constant buffer flow and the migration of the substrate peptide is monitored by the fluorescence signal of its label. Phosphorylated peptide (product) and unphosphorylated peptide (substrate) are separated in an electric field by their charge/mass ratio. Kinase activities were calculated from the amounts of formed phospho-peptide. IC50 values were determined from percent inhibition values at different compound concentrations by non-linear regression analysis.
Test compounds were dissolved in DMSO (10 mM) and transferred into 1.4 mL flat bottom or V-shaped Matrix tubes carrying a unique 2D matrix. The stock solutions were stored at […] if not used immediately. For the test procedure the vials were defrosted and identified by a scanner whereby a working sheet was generated that guided the subsequent working steps.
Compound dilutions were made in 96 well plates. This format enabled the assay of maximally 40 individual test compounds at 8 concentrations (single points) including 4 reference compounds. The dilution protocol included the production of “pre-dilution plates”, “master plates” and “assay plates”.
Pre-dilution plates: 96 polypropylene well plates were used as pre-dilution plates. A total of 4 pre-dilution plates were prepared including 10 test compounds each on the plate positions A1-A10, one standard compound at A11 and one DMSO control at A12. All dilution steps were done on a HamiltonSTAR robot.
Master plates: 30 μL of individual compound dilutions including standard compound and controls of the 4 “pre-dilution plates” were transferred into a 384 “master plate” including the following concentrations 1′810, 362, 72.5, […], 14.5, 2.9, 0.58 and 0.12 μM, respectively in 90% of DMSO.
Assay plates: Identical “assay plates” were then prepared by pipetting 50 nL each of compound dilutions of the “master plates” into 384-well “assay plates” by means of a HummingBird 384-channel dispenser. These plates were used directly for the assay which was performed in a total volume of 9.05 μL. This led to a final compound concentration of 10, 2.0, 0.4, 0.08, 0.016, 0.0032, 0.00064 and 0.000128 μM and a final DMSO concentration of 0.5% in the assay.

SMILES | IC50 [nM]
Cc1c[nH]c2c(Nc3nc(N[C@@H]4CCCC[C@@H]4N)c(F)c4cn[nH]c(=O)c34)cc(F)cc12 [Example 1.1, 7-((1R,2S)-2-Amino-cyclohexylamino)-8-fluoro-5-(5-fluoro-3-methyl-1H-indol-7-ylamino)-3H-pyrido[3,4-d]pyridazin-4-one] | 2
N[C@H]1CCCC[C@H]1Nc1nc(Nc2cccc3ncccc23)c2c(=O)[nH]ncc2c1F [Example 1.2, 7-((1R,2S)-2-Amino-cyclohexylamino)-8-fluoro-5-(quinolin-5-ylamino)-3H-pyrido[3,4-d]pyridazin-4-one] | 44
Cc1c[nH]c2c(Nc3nc(N[C@@H]4CCCC[C@@H]4N)cc4cn[nH]c(=O)c34)cccc12 [Example 2.1, 7-((1R,2S)-2-Amino-cyclohexylamino)-5-(3-methyl-1H-indol-7-ylamino)-3H-pyrido[3,4-d]pyridazin-4-one] | 1.6
Cn1ccc2c(Nc3nc(N[C@@H]4CCCC[C@@H]4N)cc4cn[nH]c(=O)c34)cccc21 [Example 2.2, 7-((1R,2S)-2-Amino-cyclohexylamino)-5-(1-methyl-1H-indol-4-ylamino)-3H-pyrido[3,4-d]pyridazin-4-one] | 0.6
Cn1cc2c(Nc3nc(N[C@@H]4CCCC[C@@H]4N)cc4cn[nH]c(=O)c34)cccc2n1 [Example 2.3, 7-((1R,2S)-2-Amino-cyclohexylamino)-5-(2-methyl-2H-indazol-4-ylamino)-3H-pyrido[3,4-d]pyridazin-4-one] | 1.1
Cc1c[nH]c2c(Nc3nc(N[C@@H]4CCCC[C@@H]4N)cc4cn[nH]c(=O)c34)cc(F)cc12 [Example 2.4, 7-((1R,2S)-2-Amino-cyclohexylamino)-5-(5-fluoro-3-methyl-1H-indol-7-ylamino)-3H-pyrido[3,4-d]pyridazin-4-one] | 1.3
N[C@H]1CCCC[C@H]1Nc1cc2cn[nH]c(=O)c2c(Nc2ccc3ncccc3c2)n1 [Example 2.5, 7-((1R,2S)-2-Amino-cyclohexylamino)-5-(quinolin-6-ylamino)-3H-pyrido[3,4-d]pyridazin-4-one] | 1.6
N[C@H]1CCCC[C@H]1Nc1cc2cn[nH]c(=O)c2c(Nc2cccc3occc23)n1 [Example 2.6, 7-((1R,2S)-2-Amino-cyclohexylamino)-5-(benzofuran-4-ylamino)-3H-pyrido[3,4-d]pyridazin-4-one] | 2
N[C@H]1CCCC[C@H]1Nc1cc2cn[nH]c(=O)c2c(Nc2cccc3sccc23)n1 [Example 2.7, 7-((1R,2S)-2-Amino-cyclohexylamino)-5-(benzo[b]thiophen-4-ylamino)-3H-pyrido[3,4-d]pyridazin-4-one] | 2.1
Cc1ccc2c(Nc3nc(N[C@@H]4CCCC[C@@H]4N)cc4cn[nH]c(=O)c34)cccc2n1 [Example 2.8, 7-((1R,2S)-2-Amino-cyclohexylamino)-5-(2-methyl-quinolin-5-ylamino)-3H-pyrido[3,4-d]pyridazin-4-one] | 2.3
N[C@H]1CCCC[C@H]1Nc1cc2cn[nH]c(=O)c2c(Nc2cccc3[nH]ccc23)n1 [Example 2.9, 7-((1R,2S)-2-Amino-cyclohexylamino)-5-(1H-indol-4-ylamino)-3H-pyrido[3,4-d]pyridazin-4-one] | 2.7
N[C@H]1CCCC[C@H]1Nc1cc2cn[nH]c(=O)c2c(Nc2cccc3[nH]ncc23)n1 [Example 2.10, 7-((1R,2S)-2-Amino-cyclohexylamino)-5-(1H-indazol-4-ylamino)-3H-pyrido[3,4-d]pyridazin-4-one] | 5.2
N[C@H]1CCCC[C@H]1Nc1cc2cn[nH]c(=O)c2c(Nc2cnc3ccccc3c2)n1 [Example 2.11, 7-((1R,2S)-2-Amino-cyclohexylamino)-5-(quinolin-3-ylamino)-3H-pyrido[3,4-d]pyridazin-4-one] | 5.4
N[C@H]1CCCC[C@H]1Nc1cc2cn[nH]c(=O)c2c(Nc2cccc3cc[nH]c23)n1 [Example 2.12, 7-((1R,2S)-2-Amino-cyclohexylamino)-5-(1H-indol-7-ylamino)-3H-pyrido[3,4-d]pyridazin-4-one] | 7
Cc1ccc(Nc2nc(N[C@@H]3CCCC[C@@H]3N)cc3cn[nH]c(=O)c23)c2cccnc12 [Example 2.13, 7-((1R,2S)-2-Amino-cyclohexylamino)-5-(8-methyl-quinolin-5-ylamino)-3H-pyrido[3,4-d]pyridazin-4-one] | 7
N#Cc1c[nH]c2c(Nc3nc(N[C@@H]4CCCC[C@@H]4N)cc4cn[nH]c(=O)c34)cccc12 [Example 2.14, 7-[7-((1R,2S)-2-Amino-cyclohexylamino)-4-oxo-3,4-dihydro-pyrido[3,4-d]pyridazin-5-ylamino]-1H-indole-3-carbonitrile] | 8
Cc1ccc(Nc2nc(N[C@@H]3CCCC[C@@H]3N)cc3cn[nH]c(=O)c23)c2cc[nH]c12 [Example 2.15, 7-((1R,2S)-2-Amino-cyclohexylamino)-5-(7-methyl-1H-indol-4-ylamino)-3H-pyrido[3,4-d]pyridazin-4-one] | 9
N[C@H]1CCCC[C@H]1Nc1cc2cn[nH]c(=O)c2c(Nc2cccc3ncccc23)n1 [Example 2.16, 7-((1R,2S)-2-Amino-cyclohexylamino)-5-(quinolin-5-ylamino)-3H-pyrido[3,4-d]pyridazin-4-one] | 9
Cc1cc2c(Nc3nc(N[C@@H]4CCCC[C@@H]4N)cc4cn[nH]c(=O)c34)cccc2[nH]1 [Example 2.17, 7-((1R,2S)-2-Amino-cyclohexylamino)-5-(2-methyl-1H-indol-4-ylamino)-3H-pyrido[3,4-d]pyridazin-4-one] | 16
N[C@H]1CCCC[C@H]1Nc1cc2cn[nH]c(=O)c2c(Nc2ccc3nccnc3c2)n1 [Example 2.18, 7-((1R,2S)-2-Amino-cyclohexylamino)-5-(quinoxalin-6-ylamino)-3H-pyrido[3,4-d]pyridazin-4-one] | 26
N[C@H]1CCCC[C@H]1Nc1cc2cn[nH]c(=O)c2c(Nc2ccc3cccnc3c2)n1 [Example 2.19, 7-((1R,2S)-2-Amino-cyclohexylamino)-5-(quinolin-7-ylamino)-3H-pyrido[3,4-d]pyridazin-4-one] | 42
N[C@H]1CCCC[C@H]1Nc1cc2cn[nH]c(=O)c2c(Nc2cccc3cccnc23)n1 [Example 2.20, 7-((1R,2S)-2-Amino-cyclohexylamino)-5-(quinolin-8-ylamino)-3H-pyrido[3,4-d]pyridazin-4-one] | 45
Cc1c[nH]c2c(Nc3nc(N[C@@H]4CCOC[C@@H]4N)cc4cn[nH]c(=O)c34)cccc12 [Example 3.1, 7-((3R,4R)-3-Amino-tetrahydro-pyran-4-ylamino)-5-(3-methyl-1H-indol-7-ylamino)-3H-pyrido[3,4-d]pyridazin-4-one] | 9
N[C@H]1COCC[C@H]1Nc1cc2cn[nH]c(=O)c2c(Nc2cccc3sccc23)n1 [Example 3.2, 7-((3R,4R)-3-Amino-tetrahydro-pyran-4-ylamino)-5-(benzo[b]thiophen-4-ylamino)-3H-pyrido[3,4-d]pyridazin-4-one] | 1.8
Cc1c[nH]c2c(Nc3nc(N[C@@H]4CCOC[C@@H]4N)cc4cn[nH]c(=O)c34)cc(F)cc12 [Example 3.3, 7-((3R,4R)-3-Amino-tetrahydro-pyran-4-ylamino)-5-(5-fluoro-3-methyl-1H-indol-7-ylamino)-3H-pyrido[3,4-d]pyridazin-4-one] | 2
N[C@H]1COCC[C@H]1Nc1cc2cn[nH]c(=O)c2c(Nc2cccc3cc[nH]c23)n1 [Example 3.4, 7-((3R,4R)-3-Amino-tetrahydro-pyran-4-ylamino)-5-(1H-indol-7-ylamino)-3H-pyrido[3,4-d]pyridazin-4-one] | 32
